Our source for the TGI values is PubChem BioAssay (NCI).

Some test systems named below: SK-OV-3 ovarian; SW-620 colon; HL-60(TB) leukemia; K-562 leukemia; CCRF-CEM leukemia; HCT-116 colon; HT29 colon; SNB-75 CNS; SR leukemia; HOP-62 NSCLC.
What all share (assay): NCI tumour cell line growth inhibition, 48 h

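Protocol summary: plate cells (96-well), add compound at 5 concentrations, incubate 48 h, interpolate endpoints linearly. TGI marks complete inhibition of growth.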

`c1ccc(N2CCN(CCCN3CCc4c([nH]c5ccccc45)C3c3cccnc3)CC2)cc1` (stereo not given): the TGI with SK-OV-3 ovarian is greater than 100 µM; with SW-620 colon, greater than 100 µM; with HL-60(TB) leukemia, greater than 58.3 µM; with K-562 leukemia, greater than 65.6 µM; with CCRF-CEM leukemia, greater than 100 µM; in the test with HCT-116 colon, greater than 100 µM. Also, the TGI was greater than 100 µM in the test on HT29 colon, greater than 100 µM with SNB-75 CNS, greater than 71.1 µM with SR leukemia and greater than 100 µM with HOP-62 NSCLC.

`C=C(C)C1CC=C(C)C(O)([C@@]2(O)C[C@H](C(=C)C)CC=C2C)C1` (stereo not given in full): the TGI is 64.1 µM in the test with SK-OV-3 ovarian; greater than 100 µM in the test on SW-620 colon; 47.2 µM in the test with HL-60(TB) leukemia; 49.4 µM in the test on K-562 leukemia; 46.3 µM in the test with CCRF-CEM leukemia; 40.1 µM with HCT-116 colon. Besides, the TGI was found to be 37.7 µM in the test on HT29 colon, 54.2 µM with SNB-75 CNS, 58.1 µM in the test with SR leukemia and 35 µM in the test with HOP-62 NSCLC.
